Here are results for 1 molecule from article PMC7447754 (Nature Communications, 2020).

The assay concerns H1N1 virus. Conditions: pH 4.9.

Where a SMILES comes first, the peptide text is derived from it.

For `CC[C@H](C)[C@H](NC(=O)[C@H](C)NC(=O)CNC(=O)[C@@H](N)CC(N)=O)C(=O)N[C@@H](CS)C(=O)N[C@@H](Cc1c[nH]c2ccccc12)C(=O)NCC(=O)N1CCC[C@H]1C(=O)N[C@@H](CS)C(=O)N1CCC[C@H]1C(=O)N[C@H](C(=O)N[C@@H](C)C(=O)N[C@@H](Cc1ccccc1)C(=O)N[C@@H](CCCNC(=N)N)C(=O)N[C@@H](CCC(N)=O)C(=O)N[C@H](C(=O)NCC(=O)N[C@@H](CC(N)=O)C(=O)N[C@@H](CS)C(=O)NCC(=O)N[C@@H](CCCNC(=N)N)C(=O)N[C@@H](Cc1ccccc1)C(=O)N[C@@H](CCCNC(=N)N)C(=O)N[C@H](C(=O)N[C@@H](CCCNC(=N)N)C(=O)N[C@@H](CS)C(=O)N[C@@H](CS)C(=O)N[C@@H](CCCNC(=N)N)C(=O)N[C@H](C(=O)N[C@@H](CCCNC(=N)N)C(=O)O)[C@@H](C)CC)C(C)C)[C@@H](C)CC)[C@@H](C)O` [P9R] (H-NGAICWGPCPTAFRQIGNCGRFRVRCCRIR-OH), the “inhibition of viral fusion (virus-induced hemolysis)” value is given as “did not inhibit viral fusion”.
